Where “and” joins values, the source holds several entries; their conditions need not be identical. Equal values may be shown once.
Columns and labels:
Type in all cases: in vivo, human
[1] = tested on: hypertensive subjects; assay: Clinical laboratory evaluations (chemistry incl. serum creatinine, hematology, coagulation, urinalysis)
Source text: (§2) Safety endpoints of this study are: • (a) Incidence and severity of all spontaneously reported adverse events (AEs) • (b) Changes in vital signs (standing SBP, standing DBP, body temperature, heart rate, and respiratory rate) • (c) Changes in electrocardiogram parameters (including cardiac intervals: PR, QRS, QT, and corrected QT interval using Fridericia's formula) • (d) Changes in clinical laboratory assessments (hematology, chemistry, coagulation, and urinalysis) • (e) Change in office-measured SBP from Study Week 8 (end-of-treatment period to end of follow up (i.e. end of Study Week 12 for Part 1 and end of Study 10 for Part 2).

[2] = tested on: serum cortisol; assay: Serum cortisol (pharmacodynamic response); settings: for Serum cortisol percent change from baseline / Cortisol, Mean Observed / Cortisol, Mean Percent Change from Baseline: Part 2; for Serum cortisol percent change from baseline, range across active arms / Cortisol, Mean (SD) Observed / Cortisol, Mean (SD) Percent Change from Baseline: Part 1
Source text: (§1) PK/PD Analysis Set includes all subjects in the SAF who have sufficient data available for the analysis of pharmacokinetic and pharmacodynamic measurements. In the analyses based on PKPD, subjects will be analyzed according to the actual treatment received.

[3] = tested on: 11-deoxycortisol; assay: Plasma 11-deoxycortisol (pharmacodynamic response); settings: for 11-Deoxycortisol, Mean (SD) Observed / 11-Deoxycortisol, Mean (SD) Percent Change from Baseline: Part 1; for 11-Deoxycortisol, Mean Observed / 11-Deoxycortisol, Mean Percent Change from Baseline: Part 2
Source text: as §1

[4] = tested on: hypertensive subjects; assay: ACTH stimulation testing / adrenocortical insufficiency
Description: 11-deoxycorticosterone levels were unaffected. […] Due to supply chain disruption, the ability to perform ACTH stimulation testing was limited during the first part of the trial. However, the majority of subjects in Part 2 dosed with 100 mg QD, the maximum dose tested, had ACTH-stimulation testing performed at Baseline and after 8 weeks of treatment.

[5] = tested on: hypertensive subjects; assay: Vital signs, physical examination, ECG parameters; settings: Parts 1 and 2
Source text: as §2

Which results are given for `CC(=O)N[C@H]1CC[C@H](NC(=O)CN2CCN(c3nncc(-c4ccc(C)cc4)n3)CC2)CC1` [Compound A HBr]?
Clinical laboratory parameters (chemistry, hematology, coagulation, urinalysis), change from baseline to Week 8 ([1]; Part 1 or Part 2): no meaningful changes; Serum creatinine levels compared with placebo ([1]; active treatment cohorts, Parts 1 and 2): increased; Serum cortisol percent change from baseline ([2]; 100 mg QD, Week 4): 20.1%; Serum cortisol percent change from baseline ([2]; 100 mg QD, Week 8): 153.4%; Serum cortisol percent change from baseline ([2]; 100 mg QD, Week 12): 1.5%; Serum cortisol percent change from baseline, range across active arms ([2]; Week 4): 3.8% to 19.2%; Serum cortisol percent change from baseline, range across active arms ([2]; Week 8): 20.6% to 51.4%; Serum cortisol percent change from baseline, range across active arms ([2]; Week 12, listed as lorundrostat): −1.2% to 22.7% and −1.2 to 22.6%; Cortisol, Mean (SD) Observed ([2]; Wk 4, 12.5 mg BID): 10.895 (3.859) μg/dL; Cortisol, Mean (SD) Percent Change from Baseline ([2]; Wk 4, 12.5 mg BID): 10.26 (45.03) %; Cortisol, Mean (SD) Observed ([2]; Wk 4, 12.5 mg QD): 9.305 (4.164) μg/dL; Cortisol, Mean (SD) Percent Change from Baseline ([2]; Wk 4, 12.5 mg QD): 7.47 (37.82) %; Cortisol, Mean (SD) Observed ([2]; Wk 4, 25 mg BID): 12.311 (5.180) μg/dL; Cortisol, Mean (SD) Percent Change from Baseline ([2]; Wk 4, 25 mg BID): 19.20 (49.39) %; Cortisol, Mean (SD) Observed ([2]; Wk 4, 50 mg QD): 10.875 (3.368) μg/dL; Cortisol, Mean (SD) Percent Change from Baseline ([2]; Wk 4, 50 mg QD): 3.83 (32.48) %; Cortisol, Mean (SD) Observed ([2]; Wk 4, 100 mg QD): 11.842 (4.350) μg/dL; Cortisol, Mean (SD) Percent Change from Baseline ([2]; Wk 4, 100 mg QD): 3.91 (32.33) %; Cortisol, Mean (SD) Observed ([2]; Wk 8, 12.5 mg BID): 12.316 (7.649) μg/dL; Cortisol, Mean (SD) Percent Change from Baseline ([2]; Wk 8, 12.5 mg BID): 20.56 (73.01) %; Cortisol, Mean (SD) Observed ([2]; Wk 8, 12.5 mg QD): 12.511 (8.784) μg/dL; Cortisol, Mean (SD) Percent Change from Baseline ([2]; Wk 8, 12.5 mg QD): 41.84 (90.37) %; Cortisol, Mean (SD) Observed ([2]; Wk 8, 25 mg BID): 15.525 (8.258) μg/dL; Cortisol, Mean (SD) Percent Change from Baseline ([2]; Wk 8, 25 mg BID): 49.57 (77.17) %; Cortisol, Mean (SD) Observed ([2]; Wk 8, 50 mg QD): 15.650 (7.102) μg/dL; Cortisol, Mean (SD) Percent Change from Baseline ([2]; Wk 8, 50 mg QD): 51.35 (78.86) %; Cortisol, Mean (SD) Observed ([2]; Wk 8, 100 mg QD): 16.680 (9.083) μg/dL; Cortisol, Mean (SD) Percent Change from Baseline ([2]; Wk 8, 100 mg QD): 47.29 (92.65) %; Cortisol, Mean (SD) Observed ([2]; Wk 12, 12.5 mg BID): 9.978 (2.742) μg/dL; Cortisol, Mean (SD) Percent Change from Baseline ([2]; Wk 12, 12.5 mg BID): −1.22 (21.10) %; Cortisol, Mean (SD) Observed ([2]; Wk 12, 12.5 mg QD): 9.317 (3.294) μg/dL; Cortisol, Mean (SD) Percent Change from Baseline ([2]; Wk 12, 12.5 mg QD): 18.06 (48.59) %; Cortisol, Mean (SD) Observed ([2]; Wk 12, 25 mg BID): 12.559 (4.287) μg/dL; Cortisol, Mean (SD) Percent Change from Baseline ([2]; Wk 12, 25 mg BID): 22.65 (41.94) %; Cortisol, Mean (SD) Observed ([2]; Wk 12, 50 mg QD): 11.262 (3.590) μg/dL; Cortisol, Mean (SD) Percent Change from Baseline ([2]; Wk 12, 50 mg QD): 6.91 (35.36) %; Cortisol, Mean (SD) Observed ([2]; Wk 12, 100 mg QD): 12.680 (5.659) μg/dL; Cortisol, Mean (SD) Percent Change from Baseline ([2]; Wk 12, 100 mg QD): 8.40 (30.09) %; Cortisol, Mean Observed ([2]; Wk 4, 100 mg QD): 13.464 µg/dL; Cortisol, Mean Percent Change from Baseline ([2]; Wk 4, 100 mg QD): 20.10%; Cortisol, Mean Observed ([2]; Wk 8, 100 mg QD): 25.393 µg/dL; Cortisol, Mean Percent Change from Baseline ([2]; Wk 8, 100 mg QD): 153.35%; Cortisol, Mean Observed ([2]; Wk 10, 100 mg QD): 10.763 µg/dL; Cortisol, Mean Percent Change from Baseline ([2]; Wk 10, 100 mg QD): 1.45%; Effects on serum cortisol ([2]; pooled (Part 1 and Part 2) 100 mg QD safety set (n=60)): no effects on serum cortisol; Effects on serum cortisol ([2]; safety dataset, complete analysis): no effects on serum cortisol; Morning serum cortisol levels ([2]; summary of trial): modestly increased; 11-Deoxycortisol, Mean (SD) Observed ([3]; Wk 4, 12.5 mg BID): 24.89 (18.99) ng/dL; 11-Deoxycortisol, Mean (SD) Percent Change from Baseline ([3]; Wk 4, 12.5 mg BID): 22.56 (118.56) %; 11-Deoxycortisol, Mean (SD) Observed ([3]; Wk 4, 12.5 mg QD): 24.21 (19.92) ng/dL; 11-Deoxycortisol, Mean (SD) Percent Change from Baseline ([3]; Wk 4, 12.5 mg QD): 10.07 (76.22) %; 11-Deoxycortisol, Mean (SD) Observed ([3]; Wk 4, 25 mg BID): 35.23 (33.00) ng/dL; 11-Deoxycortisol, Mean (SD) Percent Change from Baseline ([3]; Wk 4, 25 mg BID): 40.12 (118.32) %; 11-Deoxycortisol, Mean (SD) Observed ([3]; Wk 4, 50 mg QD): 27.15 (13.97) ng/dL; 11-Deoxycortisol, Mean (SD) Percent Change from Baseline ([3]; Wk 4, 50 mg QD): 10.80 (61.95) %; 11-Deoxycortisol, Mean (SD) Observed ([3]; Wk 4, 100 mg QD): 29.29 (23.99) ng/dL; 11-Deoxycortisol, Mean (SD) Percent Change from Baseline ([3]; Wk 4, 100 mg QD): 9.43 (60.26) %; 11-Deoxycortisol, Mean (SD) Observed ([3]; Wk 12, 12.5 mg BID): 20.94 (10.27) ng/dL; 11-Deoxycortisol, Mean (SD) Percent Change from Baseline ([3]; Wk 12, 12.5 mg BID): −14.58 (33.13) %; 11-Deoxycortisol, Mean (SD) Observed ([3]; Wk 12, 12.5 mg QD): 31.56 (29.77) ng/dL; 11-Deoxycortisol, Mean (SD) Percent Change from Baseline ([3]; Wk 12, 12.5 mg QD): 58.62 (122.14) %; 11-Deoxycortisol, Mean (SD) Observed ([3]; Wk 12, 25 mg BID): 31.55 (26.82) ng/dL; 11-Deoxycortisol, Mean (SD) Percent Change from Baseline ([3]; Wk 12, 25 mg BID): 26.81 (72.59) %; 11-Deoxycortisol, Mean (SD) Observed ([3]; Wk 12, 50 mg QD): 26.15 (18.89) ng/dL; 11-Deoxycortisol, Mean (SD) Percent Change from Baseline ([3]; Wk 12, 50 mg QD): 9.25 (111.16) %; 11-Deoxycortisol, Mean (SD) Observed ([3]; Wk 12, 100 mg QD): 31.17 (25.98) ng/dL; 11-Deoxycortisol, Mean (SD) Percent Change from Baseline ([3]; Wk 12, 100 mg QD): 22.05 (64.71) %; 11-deoxycortisol compared with placebo ([3]; Part 1 active treatment arms, Week 4): Transient increases; 11-Deoxycortisol, Mean Observed ([3]; Wk 4, 100 mg QD): 35.96 ng/dL; 11-Deoxycortisol, Mean Percent Change from Baseline ([3]; Wk 4, 100 mg QD): 22.95%; 11-Deoxycortisol, Mean Observed ([3]; Wk 10, 100 mg QD): 27.60 ng/dL; 11-Deoxycortisol, Mean Percent Change from Baseline ([3]; Wk 10, 100 mg QD): −2.13%; Adrenocortical insufficiency ([4]; during the trial, listed as lorundrostat): no adrenocortical insufficiency occurred; ACTH-stimulation results ([4]; majority of Part 2 subjects, 100 mg QD, Baseline and after 8 weeks): no individuals with abnormal ACTH-stimulation results; Vital signs, physical examination, ECG parameters [5]: no notable findings

From patent publication US20260053811A1, “METHODS OF TREATING HYPERTENSION IN OBESE SUBJECTS” (Mineralys Therapeutics, Inc., priority 2022, published 2026)
